Assays:
[1] = molecular target: T1, MET D1228N (Homo sapiens, UniProt P08581, D1228N); test: MET D1228N Mobility Shift Assay; details: biochemical assay IC50; 100 μM ATP, 60 minute kinase reaction
T1 construct: purchased Signalchem M52-12IG
How it was run: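 Microfluidic electrophoresis quantified phosphorylated versus unphosphorylated 5-FAM-KKKKEEIYFFF peptide (1.5 μM) after a 60 min reaction with 100 μM ATP. MET D1228N (0.313 nM) in 50 mM HEPES, 10 mM MgCl2, 2 mM DTT was preincubated 30 min; IC50 fitted to conversion inhibition.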

[2] = molecular target: T2, Ba/F3-TPR-MET-D1228N cells (Homo sapiens, UniProt P08581, D1228N, cells depend on it); test: CellTiter-Glo Cell Viability Assay, Ba/F3-TPR-MET-D1228N; format: cell-based; details: 72 hours
T2 construct: fused on or other part: P12270 (Nucleoprotein TPR)
T2 sequence (P08581 whole entry D1228N, the tested form may be a part): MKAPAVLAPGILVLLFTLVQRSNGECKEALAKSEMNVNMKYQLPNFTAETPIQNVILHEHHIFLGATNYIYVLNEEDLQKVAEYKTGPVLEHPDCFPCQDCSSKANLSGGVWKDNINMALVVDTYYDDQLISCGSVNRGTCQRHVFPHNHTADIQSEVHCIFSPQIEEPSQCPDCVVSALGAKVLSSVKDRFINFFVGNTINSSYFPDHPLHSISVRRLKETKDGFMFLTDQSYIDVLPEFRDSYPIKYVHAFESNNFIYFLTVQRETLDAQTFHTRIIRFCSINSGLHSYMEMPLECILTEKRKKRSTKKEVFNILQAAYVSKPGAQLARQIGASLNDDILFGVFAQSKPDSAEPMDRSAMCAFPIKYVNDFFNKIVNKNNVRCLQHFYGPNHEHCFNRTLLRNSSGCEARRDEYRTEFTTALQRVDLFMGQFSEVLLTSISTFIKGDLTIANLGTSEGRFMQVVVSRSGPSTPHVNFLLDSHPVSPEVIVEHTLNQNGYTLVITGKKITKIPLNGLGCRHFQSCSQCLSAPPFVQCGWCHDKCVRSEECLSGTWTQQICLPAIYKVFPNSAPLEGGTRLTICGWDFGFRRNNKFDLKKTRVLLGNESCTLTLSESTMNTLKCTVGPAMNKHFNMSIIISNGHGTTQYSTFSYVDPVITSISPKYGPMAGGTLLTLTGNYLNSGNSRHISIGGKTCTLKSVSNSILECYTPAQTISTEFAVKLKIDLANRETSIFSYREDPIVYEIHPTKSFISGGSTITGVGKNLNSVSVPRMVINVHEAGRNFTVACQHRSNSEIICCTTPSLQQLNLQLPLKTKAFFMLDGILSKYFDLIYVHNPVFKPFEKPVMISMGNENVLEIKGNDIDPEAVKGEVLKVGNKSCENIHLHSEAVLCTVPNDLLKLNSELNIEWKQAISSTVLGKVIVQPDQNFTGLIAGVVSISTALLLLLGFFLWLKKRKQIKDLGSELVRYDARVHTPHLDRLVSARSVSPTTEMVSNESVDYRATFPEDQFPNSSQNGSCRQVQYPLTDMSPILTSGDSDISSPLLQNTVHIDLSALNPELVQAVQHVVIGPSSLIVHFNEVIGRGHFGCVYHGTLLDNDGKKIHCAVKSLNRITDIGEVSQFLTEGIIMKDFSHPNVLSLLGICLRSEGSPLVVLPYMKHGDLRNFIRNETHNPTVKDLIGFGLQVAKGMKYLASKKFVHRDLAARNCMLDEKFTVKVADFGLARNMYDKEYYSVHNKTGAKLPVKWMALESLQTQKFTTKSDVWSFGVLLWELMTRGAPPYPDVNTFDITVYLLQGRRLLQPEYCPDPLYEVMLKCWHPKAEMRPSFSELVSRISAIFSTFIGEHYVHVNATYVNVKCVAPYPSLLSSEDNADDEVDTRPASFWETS
How it was run: (§1)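 IC50 values come from curve-fitted luminescence. Viable-cell ATP was read by CellTiter-Glo 2.0 after a 72 h, 37 °C incubation of 3000 TPR-MET or D1228N-mutant Ba/F3 cells per well. Compounds were tested as a 9-point, 3-fold series with 0.1% DMSO final.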

[3] = molecular target: T3, Ba/F3-TPR-MET cells (Homo sapiens, UniProt P08581); test: CellTiter-Glo Cell Viability Assay, Ba/F3-TPR-MET; format: cell-based; details: 72 hours
T3 construct: fused on or other part: P12270 (Nucleoprotein TPR)
How it was run: as §1

[4] = molecular target: T4, MET (Homo sapiens, UniProt P08581); test: MET Mobility Shift Assay; details: biochemical assay IC50; 100 μM ATP, 60 minute kinase reaction
T4 construct: purchased Carna Biosciences 08-151
T4 sequence (P08581 25-1390): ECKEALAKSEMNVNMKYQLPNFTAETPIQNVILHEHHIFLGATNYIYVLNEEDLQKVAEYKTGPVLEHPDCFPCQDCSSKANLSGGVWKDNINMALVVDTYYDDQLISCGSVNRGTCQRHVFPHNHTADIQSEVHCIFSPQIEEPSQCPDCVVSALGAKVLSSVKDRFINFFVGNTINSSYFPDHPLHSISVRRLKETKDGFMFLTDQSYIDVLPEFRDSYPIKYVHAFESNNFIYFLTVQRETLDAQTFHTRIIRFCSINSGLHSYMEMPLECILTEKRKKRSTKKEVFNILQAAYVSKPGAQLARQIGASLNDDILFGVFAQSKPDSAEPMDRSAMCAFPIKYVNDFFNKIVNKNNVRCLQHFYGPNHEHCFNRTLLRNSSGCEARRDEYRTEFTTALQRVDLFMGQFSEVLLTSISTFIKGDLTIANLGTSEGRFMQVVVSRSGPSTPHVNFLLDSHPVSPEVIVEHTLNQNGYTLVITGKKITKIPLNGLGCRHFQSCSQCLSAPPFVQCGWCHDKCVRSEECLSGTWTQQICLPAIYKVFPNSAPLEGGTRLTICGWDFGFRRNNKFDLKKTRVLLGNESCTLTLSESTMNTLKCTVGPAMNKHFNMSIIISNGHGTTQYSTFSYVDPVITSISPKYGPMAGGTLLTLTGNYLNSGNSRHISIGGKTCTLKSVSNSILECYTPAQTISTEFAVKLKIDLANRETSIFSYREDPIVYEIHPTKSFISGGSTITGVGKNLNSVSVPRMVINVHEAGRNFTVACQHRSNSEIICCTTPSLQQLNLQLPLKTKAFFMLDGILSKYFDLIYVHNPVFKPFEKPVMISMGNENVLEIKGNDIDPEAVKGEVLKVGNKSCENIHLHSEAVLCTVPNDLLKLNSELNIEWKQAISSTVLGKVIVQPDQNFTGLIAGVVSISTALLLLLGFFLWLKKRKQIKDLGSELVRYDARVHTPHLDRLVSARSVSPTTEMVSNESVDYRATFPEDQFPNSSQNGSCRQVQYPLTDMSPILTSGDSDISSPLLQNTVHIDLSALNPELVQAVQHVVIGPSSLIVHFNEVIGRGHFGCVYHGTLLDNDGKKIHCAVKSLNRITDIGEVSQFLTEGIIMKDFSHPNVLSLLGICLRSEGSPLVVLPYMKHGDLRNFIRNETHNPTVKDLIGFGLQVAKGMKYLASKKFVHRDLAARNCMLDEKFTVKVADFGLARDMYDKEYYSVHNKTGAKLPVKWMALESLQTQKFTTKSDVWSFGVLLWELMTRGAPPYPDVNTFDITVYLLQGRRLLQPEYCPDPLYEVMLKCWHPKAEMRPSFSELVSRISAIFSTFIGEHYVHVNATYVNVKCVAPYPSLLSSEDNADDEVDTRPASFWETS
How it was run: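 IC50s come from inhibition of substrate-to-phosphopeptide conversion, read by electrophoretic mobility shift. Reaction: 100 μM ATP, 1.5 μM 5-FAM peptide, 0.625 nM MET, 10 mM MgCl2, 60 min, after a 30 min room-temperature enzyme pre-incubation, quenched with EDTA.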

T1 sequence (P08581 25-1390 D1228N): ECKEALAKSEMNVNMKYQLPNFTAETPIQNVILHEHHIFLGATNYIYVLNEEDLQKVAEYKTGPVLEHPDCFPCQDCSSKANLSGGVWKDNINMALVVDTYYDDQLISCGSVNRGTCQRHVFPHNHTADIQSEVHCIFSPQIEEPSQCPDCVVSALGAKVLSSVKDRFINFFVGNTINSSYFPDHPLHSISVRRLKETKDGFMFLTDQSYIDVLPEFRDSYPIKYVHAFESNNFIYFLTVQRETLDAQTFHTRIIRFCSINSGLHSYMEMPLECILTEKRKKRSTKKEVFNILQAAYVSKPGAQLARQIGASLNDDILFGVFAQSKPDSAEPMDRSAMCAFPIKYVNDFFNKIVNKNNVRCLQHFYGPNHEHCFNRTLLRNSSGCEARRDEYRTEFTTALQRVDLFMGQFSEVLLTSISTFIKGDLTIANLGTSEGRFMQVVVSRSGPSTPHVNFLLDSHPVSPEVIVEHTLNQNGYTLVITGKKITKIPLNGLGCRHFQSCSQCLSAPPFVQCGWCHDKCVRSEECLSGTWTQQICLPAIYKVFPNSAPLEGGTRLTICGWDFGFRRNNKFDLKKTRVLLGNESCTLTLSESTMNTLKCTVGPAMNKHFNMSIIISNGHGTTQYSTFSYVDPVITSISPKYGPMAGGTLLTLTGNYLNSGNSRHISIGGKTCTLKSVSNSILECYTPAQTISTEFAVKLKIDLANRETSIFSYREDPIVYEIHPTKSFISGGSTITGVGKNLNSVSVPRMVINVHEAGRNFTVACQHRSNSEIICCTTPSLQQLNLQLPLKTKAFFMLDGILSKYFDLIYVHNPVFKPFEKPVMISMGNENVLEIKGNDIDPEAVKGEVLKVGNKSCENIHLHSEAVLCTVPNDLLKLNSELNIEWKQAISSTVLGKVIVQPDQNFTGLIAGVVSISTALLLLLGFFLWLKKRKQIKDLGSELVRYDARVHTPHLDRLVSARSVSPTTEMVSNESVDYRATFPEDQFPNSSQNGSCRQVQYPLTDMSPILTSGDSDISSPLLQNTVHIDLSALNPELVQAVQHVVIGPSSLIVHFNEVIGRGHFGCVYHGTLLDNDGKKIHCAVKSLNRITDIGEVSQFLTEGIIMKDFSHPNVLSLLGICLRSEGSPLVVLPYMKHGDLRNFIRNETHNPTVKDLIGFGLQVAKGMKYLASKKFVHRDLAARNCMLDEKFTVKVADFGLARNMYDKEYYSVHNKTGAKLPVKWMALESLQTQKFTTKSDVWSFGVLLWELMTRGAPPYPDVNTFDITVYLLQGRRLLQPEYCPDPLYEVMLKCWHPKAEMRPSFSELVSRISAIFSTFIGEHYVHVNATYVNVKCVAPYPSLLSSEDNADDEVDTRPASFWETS

SMILES	IC50 [1]	IC50 [4]	EC50 [2]	EC50 [3]
CNCCOc1cc2nccc(Oc3c(F)cc(NC(=O)c4cnc(F)cc4OC4CC4)cc3F)c2cc1OC [Example 110, 4-cyclopropoxy-N-[3,5-difluoro-4-({6-methoxy-7-[2-(methylamino)ethoxy]quinolin-4-yl}oxy)phenyl]-6-fluoropyridine-3-carboxamide]	≤ 100 nM	≤ 100 nM	≤ 100 nM	≤ 100 nM
CNCCOc1ccc2c(Oc3c(F)cc(NC(=O)c4cnc(Cl)cc4OC4CC4)cc3F)ccnc2c1 [Example 113, 6-chloro-4-cyclopropoxy-N-[3,5-difluoro-4-({7-[2-(methylamino)ethoxy]quinolin-4-yl}oxy)phenyl]pyridine-3-carboxamide]	≤ 100 nM	≤ 100 nM	≤ 100 nM	≤ 100 nM
CNCCOc1ccc2c(Oc3c(F)cc(NC(=O)c4cnc(C)cc4OC4CC4)cc3F)ccnc2c1 [Example 115, 4-cyclopropoxy-N-(3,5-difluoro-4-((7-(2-(methylamino)ethoxy)quinolin-4-yl)oxy)phenyl)-6-methylpyridine-3-carboxamide]	≤ 100 nM	≤ 100 nM	≤ 100 nM	≤ 100 nM
COc1cc2c(Oc3c(F)cc(NC(=O)c4cnc(C)cc4OC4CC4)cc3F)ccnc2cc1OCCO [Example 116, 4-cyclopropoxy-N-(3,5-difluoro-4-{[7-(2-hydroxyethoxy)-6-methoxyquinolin-4-yl]oxy}phenyl)-6-methylpyridine-3-carboxamide]	≤ 100 nM	≤ 100 nM	≤ 100 nM	≤ 100 nM
COc1cc2c(Oc3c(F)cc(NC(=O)c4c(OC5CC5)ccnc4F)cc3F)ccnc2cc1OCCO [Example 118]	≤ 100 nM	≤ 100 nM	≤ 100 nM	≤ 100 nM
COCCOc1ccc2c(Oc3c(F)cc(NC(=O)c4nnccc4OC4CC4)cc3F)ccnc2c1 [Example 120, 4-cyclopropoxy-N-(3,5-difluoro-4-((7-(2-methoxyethoxy)quinolin-4-yl)oxy)phenyl)pyridazine-3-carboxamide]	≤ 100 nM	≤ 100 nM	100 to 1000 nM	100 to 1000 nM
COc1cc2c(Oc3c(F)cc(NC(=O)c4cnccc4OC)cc3F)ccnc2cc1OCCO [Example 121, N-(3,5-difluoro-4-((7-(2-hydroxyethoxy)-6-methoxyquinolin-4-yl)oxy)phenyl)-4-methoxypyridine-3-carboxamide]	≤ 100 nM	≤ 100 nM	≤ 100 nM	≤ 100 nM
COc1cc2nccc(Oc3c(F)cc(NC(=O)c4cnccc4OC)cc3F)c2cc1OCCO [Example 122, N-(3,5-difluoro-4-{[6-(2-hydroxyethoxy)-7-methoxyquinolin-4-yl]oxy}phenyl)-4-methoxypyridine-3-carboxamide]	≤ 100 nM	≤ 100 nM	≤ 100 nM	≤ 100 nM
COc1cc2nccc(Oc3c(F)cc(NC(=O)c4cnccc4OC)cc3F)c2cc1OC[C@H](C)O [Example 123, (S)-N-(3,5-difluoro-4-{[6-(2-hydroxypropoxy)-7-methoxyquinolin-4-yl]oxy}phenyl)-4-methoxypyridine-3-carboxamide]	≤ 100 nM	≤ 100 nM	≤ 100 nM	≤ 100 nM
COc1cc2nccc(Oc3c(F)cc(NC(=O)c4cnccc4OC)cc3F)c2cc1OC[C@@H](C)O [Example 124, (R)-N-(3,5-difluoro-4-{[6-(2-hydroxypropoxy)-7-methoxyquinolin-4-yl]oxy}phenyl)-4-methoxypyridine-3-carboxamide]	≤ 100 nM	≤ 100 nM	≤ 100 nM	≤ 100 nM
COc1cc2nccc(Oc3c(F)cc(NC(=O)c4cnccc4OC)cc3F)c2cc1OCC(C)(C)O [Example 125, N-(3,5-difluoro-4-{[6-(2-hydroxy-2-methylpropoxy)-7-methoxyquinolin-4-yl]oxy}phenyl)-4-methoxypyridine-3-carboxamide]	≤ 100 nM	≤ 100 nM	≤ 100 nM	≤ 100 nM
COc1cc2nccc(Oc3c(F)cc(NC(=O)c4ccncc4OC)cc3F)c2cc1O[C@@H](C)CO [Example 127, (S)-N-(3,5-difluoro-4-((6-((1-hydroxypropan-2-yl)oxy)-7-methoxyquinolin-4-yl)oxy)phenyl)-3-methoxyisonicotinamide]	≤ 100 nM	≤ 100 nM	≤ 100 nM	≤ 100 nM
COC[C@H](C)Oc1cc2c(Oc3c(F)cc(NC(=O)c4cnccc4OC)cc3F)ccnc2cc1OC [Example 128, (S)-N-(3,5-difluoro-4-((7-methoxy-6-((1-methoxypropan-2-yl)oxy)quinolin-4-yl)oxy)phenyl)-4-methoxynicotinamide]	≤ 100 nM	≤ 100 nM	≤ 100 nM	≤ 100 nM
COc1cc2nccc(Oc3c(F)cc(NC(=O)c4cnccc4OC4CC4)cc3F)c2cc1O[C@@H](C)CO [Example 129, (S)-4-cyclopropoxy-N-(3,5-difluoro-4-((6-((1-hydroxypropan-2-yl)oxy)-7-methoxyquinolin-4-yl)oxy)phenyl)nicotinamide]	≤ 100 nM	≤ 100 nM	≤ 100 nM	≤ 100 nM

More lines, main results first:

IC50 [1]	IC50 [4]	SMILES	EC50 [2]	EC50 [3]
≤ 100 nM	≤ 100 nM	COc1cc(OC2CC2)c(C(=O)Nc2cc(F)c(Oc3ccnc4cc(OCCO)c(OC)cc34)c(F)c2)cn1 [Example 111, 4-cyclopropoxy-N-(3,5-difluoro-4-((7-(2-hydroxyethoxy)-6-methoxyquinolin-4-yl)oxy)phenyl)-6-methoxypyridine-3-carboxamide]	≤ 100 nM	≤ 100 nM
≤ 100 nM	≤ 100 nM	CNCCOc1cc2nccc(Oc3c(F)cc(NC(=O)c4cnc(Cl)cc4OC4CC4)cc3F)c2cc1OC [Example 112, 6-chloro-4-cyclopropoxy-N-[3,5-difluoro-4-({6-methoxy-7-[2-(methylamino)ethoxy]quinolin-4-yl}oxy)phenyl]pyridine-3-carboxamide]	100 to 1000 nM	100 to 1000 nM
≤ 100 nM	≤ 100 nM	CNCCOc1cc2nccc(Oc3c(F)cc(NC(=O)c4cnc(C)nc4OC4CC4)cc3F)c2cc1OC [Example 114, 4-cyclopropoxy-N-[3,5-difluoro-4-({6-methoxy-7-[2-(methylamino)ethoxy]quinolin-4-yl}oxy)phenyl]-2-methylpyrimidine-5-carboxamide]	100 to 1000 nM	100 to 1000 nM
≤ 100 nM	≤ 100 nM	CNCCOc1cc2nccc(Oc3c(F)cc(NC(=O)c4cnc(C)cc4OC4CC4)cc3F)c2cc1OC [Example 117, 4-cyclopropoxy-N-[3,5-difluoro-4-({6-methoxy-7-[2-(methylamino)ethoxy]quinolin-4-yl}oxy)phenyl]-6-methylpyridine-3-carboxamide]	≤ 100 nM	≤ 100 nM
≤ 100 nM	≤ 100 nM	CCOc1ccnc(F)c1C(=O)Nc1cc(F)c(Oc2ccnc3cc(OCCCNC)c(OC)cc23)c(F)c1 [Example 119]	100 to 1000 nM	100 to 1000 nM
≤ 100 nM	≤ 100 nM	COc1cc2nccc(Oc3c(F)cc(NC(=O)c4cnccc4OC)cc3F)c2cc1O[C@@H](C)CO [Example 126, (S)-N-(3,5-difluoro-4-{[6-((1-hydroxypropan-2-yl)oxy)-7-methoxyquinolin-4-yl]oxy}phenyl)-4-methoxypyridine-3-carboxamide]	≤ 100 nM	≤ 100 nM
